Results from ChEMBL document CHEMBL5214905 (J Med Chem, 2021).
pEC50, pIC50: −log10 of the molar value. Activity calls are given as the source filed them. No cut-off for these calls is given here.

How the values were obtained:
[1] = biological target: Indoleamine 2,3-dioxygenase 1 (Homo sapiens, UniProt P14902); test: Inhibition of human IDO1 (12 to 403 aa) expressed in Escherichia coli Transetta (DE3) by nanodrop 2000c spectrophotometric analysis
[2] = biological target: T1, Tryptophan 2,3-dioxygenase (Homo sapiens, UniProt P48775)
Description: Inhibition of human TDO (19 to 388 aa) expressed in Escherichia coli Transetta (DE3) by nanodrop 2000c spectrophotometric analysis

[3] = biological target: T1, Tryptophan 2,3-dioxygenase; test: Inhibition of TDO in overexpressing human A-172 cells; assay type: cell-based
BCRP [4] = test: Apparent permeability in human Caco-2 expressing BCRP cells across apical to basolateral side in presence of novobiocin; assay type: ADME, cell-based; conditions: Caco-2, with novobiocin (concentration not stated), read-out: permeability
BCRP [5] = test: Apparent permeability in human Caco-2 expressing BCRP cells across basolateral to apical side; assay type: ADME, cell-based; conditions: read-out: permeability
BCRP [6] = test: Efflux ratio of apparent permeability across basolateral to apical side to apical to basolateral side in human Caco-2 expressing BCRP cells; assay type: ADME, cell-based
BCRP [7] = test: Efflux ratio of apparent permeability across basolateral to apical side to apical to basolateral side in human Caco-2 expressing BCRP cells in presence of novobiocin; assay type: ADME, cell-based; conditions: Caco-2, with novobiocin (concentration not stated)
MDR1 [8] = test: Permeability in MDCKII expressing MDR1 cells across apical to basolateral side by measuring ratio of the final amount of the compound in donor and receiver chambers to the initial amount of the compound in the donor chamber relative to control; assay type: ADME, cell-based, Canis lupus familiaris, MDCK-II; conditions: dog, MDCK-MDR1
MDR1 [9] = test: Permeability in MDCKII expressing MDR1 cells across basolateral to apical side by measuring ratio of the final amount of the compound in donor and receiver chambers to the initial amount of the compound in the donor chamber relative to control; assay type: ADME, cell-based, Canis lupus familiaris, MDCK-II; conditions: dog, MDCK-MDR1
BCRP [10] = test: Permeability in human Caco-2 expressing BCRP cells across basolateral to apical side by measuring ratio of the final amount of the compound in donor and receiver chambers to the initial amount of the compound in the donor chamber in presence of novobiocin relative to control; assay type: ADME, cell-based; conditions: Caco-2, with novobiocin (concentration not stated)
[11] = Unbound fraction in mouse plasma by LC-MS/MS analysis relative to control; assay type: ADME
[12] = Unbound fraction in mouse brain by LC-MS/MS analysis relative to control; assay type: ADME, tissue-based
[13] = AUC (0 to 12 hrs) in Sprague-Dawley rat plasma at 100 mg/kg, po measured after 0.083 to 24 hrs by HPLC analysis; assay type: ADME, organism-based; parameters: time lower 0.083 hrs, dose 100 mg/kg, time upper 24 hrs, route po
[14] = Tmax in Sprague-Dawley rat plasma at 100 mg/kg, po measured after 0.083 to 24 hrs by HPLC analysis; assay type: ADME, organism-based; conditions: time 0.083-24 hrs
[15] = Cmax in Sprague-Dawley rat plasma at 100 mg/kg, po measured after 0.083 to 24 hrs by HPLC analysis; assay type: ADME, organism-based; parameters: time lower 0.083 hrs, dose 100 mg/kg, time upper 24 hrs, route po
[16] = AUC (0 to 12 hrs) in Sprague-Dawley rat plasma at 100 mg/kg, iv measured after 0.083 to 24 hrs by HPLC analysis; assay type: ADME, organism-based; parameters: dose 100 mg/kg, time 0.083-24 hrs, route iv
[17] = AUC (0 to infinity) in Sprague-Dawley rat plasma at 100 mg/kg, po measured after 0.083 to 24 hrs by HPLC analysis; assay type: ADME, organism-based; parameters: time 0.083-24 hrs, dose 100 mg/kg, route po
[18] = Volume of distribution at steady state in Sprague-Dawley rat plasma at 100 mg/kg, iv measured after 0.083 to 24 hrs by HPLC analysis; assay type: ADME, organism-based; conditions: time 0.083-24 hrs, read-out: Vdss
[19] = Clearance in Sprague-Dawley rat plasma at 100 mg/kg, iv measured after 0.083 to 24 hrs by HPLC analysis; assay type: ADME, organism-based; conditions: time 0.083-24 hrs
[20] = Oral bioavailability in Sprague-Dawley rat plasma by measuring dose-corrected area under the curve (AUC) oral divided by AUC intravenous at 100 mg/kg measured after 0.083 to 24 hrs by HPLC analysis relative to control; assay type: ADME, organism-based; conditions: time 0.083-24 hrs
[21] = Ratio of drug concentration in total brain to total plasma in Kunming mouse assessed as blood brain barrier permeability measured at 0.5 to 12 hrs by HPLC analysis; conditions: time 0.5-12 hrs
[22] = Ratio of drug concentration in unbound brain to unbound plasma in Kunming mouse assessed as blood brain barrier permeability measured at 0.5 to 12 hrs by HPLC analysis; conditions: time 0.5-12 hrs
[23] = Toxicity in MPTP induced C57BL/6J mouse neurodegenerative model assessed as no change in spleen weight treated with MPTP for 7 days followed by compound administration at 10 to 30 mg/kg, po measured upto 32 days; assay type: organism-based; conditions: in vivo, 768 h, dose 10-30 mg/kg, time < 32 day
Mus musculus [24] = test: Neuroprotective activity in MPTP induced C57BL/6J mouse neurodegenerative model assessed as normal cell morphology in neuron cells treated with MPTP for 7 days followed by compound administration at 30 mg/kg, po by IHC staining method; assay type: functional, organism-based
Mus musculus [25] = test: Neuroprotective activity in MPTP induced C57BL/6J mouse neurodegenerative model assessed as no change in IDO1 expression in brain striatum treated with MPTP for 7 days followed by compound administration at 30 mg/kg, po by Western blotting analysis; assay type: functional, organism-based
Mus musculus [26] = test: In vivo antiinflammatory activity in MPTP induced C57BL/6J mouse neurodegenerative model assessed as decrease in TNF-alpha expression treated with MPTP for 7 days followed by compound administration at 30 mg/kg, po by Western blotting analysis; assay type: functional, organism-based
Mus musculus [27] = test: Neuroprotective activity in MPTP induced neurodegenerative C57BL/6J mouse model assessed as decrease in tryptophan metabolite QUIN in mouse striatum treated with MPTP for 7 days followed by compound administration at 30 mg/kg, po by LC-MS/MS analysis; assay type: functional, organism-based
CYP2C9 = CYP2C9 (Homo sapiens, UniProt P11712); test: Inhibition of human liver microsome CYP2C9 using 4'-hydroxy diclofenac as substrate incubated at 3 uM for 10 mins by LC/MS/MS analysis relative to control; conditions: liver microsomes, probe 4'-hydroxy diclofenac (so in the source)
[28] = biological target: Receptor-type tyrosine-protein kinase FLT3 (Homo sapiens) (UniProt P36888); test: Inhibition of human wildtype partial length FLT3 expressed in bacterial system at 10 uM relative to control
[29] = biological target: Dual specificity tyrosine-phosphorylation-regulated kinase 1B (Homo sapiens) (UniProt Q9Y463); test: Inhibition of human wildtype full length DYRK1B expressed in bacterial system at 10 uM relative to control
[30] = biological target: Glycogen synthase kinase-3 beta (Homo sapiens) (UniProt P49841); test: Inhibition of human wildtype full length GSK3 beta expressed in bacterial system at 10 uM relative to control
Sequence of Glycogen synthase kinase-3 beta (Homo sapiens) (P49841 whole entry, looked up): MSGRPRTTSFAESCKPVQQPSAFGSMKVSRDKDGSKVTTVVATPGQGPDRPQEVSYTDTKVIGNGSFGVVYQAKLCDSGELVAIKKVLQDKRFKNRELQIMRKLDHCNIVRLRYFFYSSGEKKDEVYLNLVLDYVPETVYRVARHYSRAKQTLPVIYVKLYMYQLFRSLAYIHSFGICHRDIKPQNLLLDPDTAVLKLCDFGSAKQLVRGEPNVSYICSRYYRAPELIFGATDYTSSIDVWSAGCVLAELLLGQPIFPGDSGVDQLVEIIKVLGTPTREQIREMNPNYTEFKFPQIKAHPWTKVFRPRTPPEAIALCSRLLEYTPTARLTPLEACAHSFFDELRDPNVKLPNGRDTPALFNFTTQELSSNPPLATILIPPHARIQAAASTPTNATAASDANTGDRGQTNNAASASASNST

T1 sequence (P48775 whole entry): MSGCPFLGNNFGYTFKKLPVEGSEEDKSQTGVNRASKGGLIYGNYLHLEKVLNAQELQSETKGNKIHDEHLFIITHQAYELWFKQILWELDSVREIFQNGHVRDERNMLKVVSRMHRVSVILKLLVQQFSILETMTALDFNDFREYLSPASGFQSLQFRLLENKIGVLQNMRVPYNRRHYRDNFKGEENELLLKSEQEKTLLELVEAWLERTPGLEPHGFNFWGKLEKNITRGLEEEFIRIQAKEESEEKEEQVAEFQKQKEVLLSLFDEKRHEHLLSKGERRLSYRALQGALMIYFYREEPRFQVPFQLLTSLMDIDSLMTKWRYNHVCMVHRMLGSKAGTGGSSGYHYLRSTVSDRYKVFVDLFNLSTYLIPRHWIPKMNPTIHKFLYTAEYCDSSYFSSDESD
Sequence of Receptor-type tyrosine-protein kinase FLT3 (Homo sapiens) (P36888 whole entry): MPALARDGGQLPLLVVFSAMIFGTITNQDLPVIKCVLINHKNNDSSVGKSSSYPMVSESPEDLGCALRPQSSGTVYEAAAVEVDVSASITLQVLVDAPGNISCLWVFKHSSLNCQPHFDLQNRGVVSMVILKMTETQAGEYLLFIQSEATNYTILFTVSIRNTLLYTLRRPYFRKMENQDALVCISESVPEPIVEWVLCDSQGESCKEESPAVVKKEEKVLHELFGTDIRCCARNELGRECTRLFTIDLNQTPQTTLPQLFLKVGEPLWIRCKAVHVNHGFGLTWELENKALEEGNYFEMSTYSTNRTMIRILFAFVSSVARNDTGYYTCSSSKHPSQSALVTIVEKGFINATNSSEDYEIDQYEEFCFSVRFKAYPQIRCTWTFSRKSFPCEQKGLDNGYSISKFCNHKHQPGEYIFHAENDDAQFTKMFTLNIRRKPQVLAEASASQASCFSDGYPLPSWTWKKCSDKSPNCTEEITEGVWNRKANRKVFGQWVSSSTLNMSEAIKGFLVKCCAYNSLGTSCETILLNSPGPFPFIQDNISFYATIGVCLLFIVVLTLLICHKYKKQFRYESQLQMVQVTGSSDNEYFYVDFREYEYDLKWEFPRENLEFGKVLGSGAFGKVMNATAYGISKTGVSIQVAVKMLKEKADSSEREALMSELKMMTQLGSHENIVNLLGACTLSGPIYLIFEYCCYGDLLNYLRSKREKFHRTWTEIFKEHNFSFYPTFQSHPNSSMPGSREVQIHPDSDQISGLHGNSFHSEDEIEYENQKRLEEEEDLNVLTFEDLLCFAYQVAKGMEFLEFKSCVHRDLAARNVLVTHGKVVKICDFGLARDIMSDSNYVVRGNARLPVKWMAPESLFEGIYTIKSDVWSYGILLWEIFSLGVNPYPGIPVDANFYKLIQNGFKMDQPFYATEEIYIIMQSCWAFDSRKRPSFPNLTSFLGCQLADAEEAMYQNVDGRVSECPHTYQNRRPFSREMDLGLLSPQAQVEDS
Sequence of Dual specificity tyrosine-phosphorylation-regulated kinase 1B (Homo sapiens) (Q9Y463 whole entry, looked up): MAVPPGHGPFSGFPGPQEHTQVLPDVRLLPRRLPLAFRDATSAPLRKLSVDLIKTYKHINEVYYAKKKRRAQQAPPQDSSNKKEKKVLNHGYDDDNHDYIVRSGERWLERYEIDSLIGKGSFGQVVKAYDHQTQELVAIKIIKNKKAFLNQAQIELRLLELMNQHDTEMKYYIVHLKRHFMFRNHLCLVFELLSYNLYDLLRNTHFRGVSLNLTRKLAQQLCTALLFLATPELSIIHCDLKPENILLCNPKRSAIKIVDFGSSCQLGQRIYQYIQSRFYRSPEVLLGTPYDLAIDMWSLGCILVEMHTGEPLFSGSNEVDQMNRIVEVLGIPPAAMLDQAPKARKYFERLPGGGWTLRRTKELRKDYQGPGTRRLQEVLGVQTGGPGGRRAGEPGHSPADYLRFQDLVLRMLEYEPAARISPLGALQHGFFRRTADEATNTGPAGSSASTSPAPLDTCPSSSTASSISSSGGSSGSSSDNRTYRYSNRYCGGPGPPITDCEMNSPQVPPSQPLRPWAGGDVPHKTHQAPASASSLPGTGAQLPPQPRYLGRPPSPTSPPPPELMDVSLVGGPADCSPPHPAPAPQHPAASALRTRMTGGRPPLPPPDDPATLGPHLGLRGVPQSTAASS
Sequence of CYP2C9 (P11712 whole entry): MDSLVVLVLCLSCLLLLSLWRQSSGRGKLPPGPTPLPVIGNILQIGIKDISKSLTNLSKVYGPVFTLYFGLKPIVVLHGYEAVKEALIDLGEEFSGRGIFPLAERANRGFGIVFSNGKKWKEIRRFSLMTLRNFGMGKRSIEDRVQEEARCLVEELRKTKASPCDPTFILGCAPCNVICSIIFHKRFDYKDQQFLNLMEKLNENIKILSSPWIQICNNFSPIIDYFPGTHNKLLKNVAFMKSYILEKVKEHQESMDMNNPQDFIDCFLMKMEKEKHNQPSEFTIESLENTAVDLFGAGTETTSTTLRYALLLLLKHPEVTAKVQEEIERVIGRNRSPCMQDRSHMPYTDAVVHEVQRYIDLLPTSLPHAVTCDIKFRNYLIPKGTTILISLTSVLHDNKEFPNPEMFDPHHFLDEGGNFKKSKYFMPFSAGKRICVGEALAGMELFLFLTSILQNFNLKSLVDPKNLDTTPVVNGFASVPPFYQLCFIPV
Sequence of Indoleamine 2,3-dioxygenase 1 (P14902 whole entry, the tested form may be a part): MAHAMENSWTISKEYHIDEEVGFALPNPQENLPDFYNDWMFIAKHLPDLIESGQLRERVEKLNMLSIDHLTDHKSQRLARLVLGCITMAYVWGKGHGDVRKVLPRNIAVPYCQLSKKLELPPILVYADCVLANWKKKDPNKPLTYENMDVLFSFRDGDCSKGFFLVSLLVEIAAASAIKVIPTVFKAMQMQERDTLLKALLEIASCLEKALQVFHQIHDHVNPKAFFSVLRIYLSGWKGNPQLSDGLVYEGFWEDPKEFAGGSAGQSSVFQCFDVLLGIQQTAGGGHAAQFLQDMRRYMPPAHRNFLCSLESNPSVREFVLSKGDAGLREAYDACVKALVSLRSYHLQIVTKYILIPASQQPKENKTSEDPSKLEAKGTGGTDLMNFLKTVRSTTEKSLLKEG

O[C@@H]1CCCC[C@H]1CNc1cc(Br)cc2[nH]ncc12
pIC50 [1]: 6.19
pIC50 [2]: 7.40
pEC50 [3]: 5.52
Papp A→B (BCRP [4]): 194 nm/s
Papp B→A (BCRP [5]): 104 nm/s
efflux ratio (BCRP [6]): 0.56
efflux ratio (BCRP [7]): 0.51
recovery (MDR1 [8]): 55.1%
recovery (MDR1 [9]): 81.9%
recovery (BCRP [10]): 74.9%
Fu [11]: 0.73%
Fu [12]: 0.25%
AUC(0-t) [13]: 22.2 µg·h/mL
Tmax [14]: 25.2 min
Cmax [15]: 6.87 µg/mL
AUC(0-t) [16]: 30.3 µg·h/mL
AUC(0-inf) [17]: 26.6 µg·h/mL
Vd [18]: 28.1 L/kg
clearance [19]: 2.43 L/h/kg
bioavailability [20]: 73.2%
Ratio [21]: 0.81%
K(p,uu,brain) [22]: 0.28%
Activity [23]: Non-Toxic
Activity (Mus musculus [24]): Active
Activity (Mus musculus [25]): Active
Activity (Mus musculus [26]): Active
Activity (Mus musculus [27]): Active
inhibition at 10 min, 3 µM (CYP2C9): 83.4%
inhibition [28]: > 90%
inhibition [29]: > 90%
inhibition [30]: > 90%
